The conditions of data set [1]: furosemide 40 mg alone, geometric least squares mean.
Data set [2] is described as follows: Safety assessments. In kind it is in vivo, healthy subjects. As to conditions: for Pulse rate / Supine diastolic blood pressure / Supine systolic blood pressure: mean ± SD; for eGFR: mean ± standard deviation, baseline 107.8 ± 10.9.
The format of data set [3] is in vivo, healthy subjects. As to conditions: mean (SD).
Data set [4] is classed as in vivo, healthy subjects. As to conditions: for Tmax / AUC / Cmax: human, plasma, oral; for AUC: AUCtau, steady state; for AUC / Cmax: mean (SD); for Cmax: Cmax,ss; for Estimated geometric mean ratio of AUCtau / Estimated geometric mean ratio of Cmax,ss: sacubitril/valsartan + furosemide vs sacubitril/valsartan alone.
Where [5] appears, read: urine, 4 to 8 h after furosemide.
[6] abbreviates: 200 mg, sacubitril/valsartan 200 mg twice daily alone.
The mark [7] stands for this setting: sacubitril/valsartan 200 mg twice daily + furosemide 40 mg single dose.

“And” between values parts separate entries of the source, which are not always exact repeats. Equal values may be shown once. Read-outs that look alike come from different tables or passages of the source.

In the case of `NS(=O)(=O)c1cc(C(=O)O)c(NCc2ccco2)cc1Cl` [Furosemide, furosemide], the “Ae0–4, amount excreted in urine” value in data set [1] (0 to 4 h) was determined as 8.03 mg. In addition, the “Ae0–24, amount excreted in urine” value in data set [1] (0 to 24 h) was determined as 12.54 mg. Further, in data set [2], the Pulse rate worked out at 71.0 ± 9.7 bpm, the “Supine diastolic blood pressure” value stood at 71.6 ± 6.1 mmHg, the “Supine systolic blood pressure” value is 115.5 ± 12.2 mmHg and the eGFR amounted to 103.1 ± 12.5 ml min^–1 1.73 m^–2. For the same compound, the “subjects reporting AE back pain” value in data set [2] (one subject of 28) came out at 3.6%. Further, in data set [2] (when treated with furosemide, 28 subjects), the “subjects reporting AEs” value was “Two subjects reported AEs”. Further, the “Urine volume, Volume0–4” value in data set [3] (0 to 4 h after furosemide) is 1640.00 (413.49) ml. Further, the “Urine volume, Volume0–24” value in data set [3] (0 to 24 h after furosemide) is recorded as 3816.07 (533.04) ml. In data set [3] (4 to 8 h after furosemide), the “Urine volume, Volume4–8” value was 585.36 (204.30) ml. Moreover, in data set [3] (urine, 0 to 4 h after furosemide), the “Potassium Ae0–4” value was 22.87 (5.60) mmol. In data set [3] (urine, 0 to 4 h after furosemide, listed as Furosemide alone), the “Sodium Ae0–4” value was 128.87 mmol and 128.87 (42.36) mmol. Further, the “Potassium Ae0–24” value in data set [3] (urine, 0 to 24 h after furosemide) is given as 60.35 (8.08) mmol. Moreover, in data set [3] (urine, 0 to 24 h after furosemide, listed as Furosemide alone), the “Sodium Ae0–24” value was 198.68 mmol and 198.68 (34.95) mmol. In addition, in data set [3] (setting [5]), the “Potassium Ae4–8” value was 10.04 (3.74) mmol and the “Sodium Ae4–8” value is given as 21.57 (12.89) mmol.
Consider `CCOC(=O)[C@H](C)C[C@@H](Cc1ccc(-c2ccccc2)cc1)NC(=O)CCC(=O)O` [Sacubitril, sacubitril], for which, in data set [4] (200 mg), the Tmax was 0.52 h. In data set [4] (setting [6]), this compound yielded an AUC of 2330 ng·h/mL and a Cmax of 1740 ng/mL. In addition, in data set [4] (setting [7]), the AUC amounted to 2330 ng·h/mL and the Cmax amounted to 1810 ng/mL. Further, in data set [4], the “Estimated geometric mean ratio of AUCtau” value is given as 1.01 and the “Estimated geometric mean ratio of Cmax,ss” value is listed as 1.04.
With `C[C@H](C[C@@H](Cc1ccc(-c2ccccc2)cc1)NC(=O)CCC(=O)O)C(=O)O` [Sacubitrilat, sacubitrilat], the Tmax in data set [4] (200 mg) is 2 h. For the same compound, in data set [4] (setting [6]), the AUC was 79600 ng·h/mL and the Cmax worked out at 11800 ng/mL. For the same compound, in data set [4] (setting [7]), the exposure (AUC) was found to be 86100 ng·h/mL and the Cmax is 12700 ng/mL. For the same compound, in data set [4], the “Estimated geometric mean ratio of AUCtau” value was 1.08 and the “Estimated geometric mean ratio of Cmax,ss” value was 1.08.
In the case of `CCCCC(=O)N(Cc1ccc(-c2ccccc2-c2nnn[nH]2)cc1)[C@H](C(=O)O)C(C)C` [Valsartan, valsartan], the Tmax in data set [4] (200 mg) worked out at 1.75 h. Also, in data set [4] (setting [6]), the AUC is 18900 ng·h/mL and the concentration peaked (Cmax) at 3860 ng/mL. In data set [4] (setting [7]), the AUC came out at 21000 ng·h/mL and the Cmax stood at 4250 ng/mL. For the same compound, in data set [4], the “Estimated geometric mean ratio of AUCtau” value was 1.16 and the “Estimated geometric mean ratio of Cmax,ss” value is on record as 1.16. Moreover, the “coefficient of variation of pharmacokinetic parameters” value in data set [4] (valsartan pharmacokinetic parameters) is given as 35.8%. Besides, in data set [4] (vs sacubitril/valsartan alone), the “increase of AUCtau when coadministered with furosemide” value is reported as 16% and the “increase of Cmax,ss when coadministered with furosemide” value stood at 16%.
For sacubitril/valsartan, the “subjects reporting AEs diarrhoea, headache and presyncope (each)” value in data set [2] (each reported by one subject of 28, sacubitril/valsartan alone) came out at 3.6%. For the same compound, in data set [2], the Pulse rate was determined as 71.6 ± 9.9 bpm, the “Supine diastolic blood pressure” value amounted to 67.5 ± 7.9 mmHg, the “Supine systolic blood pressure” value is 111.1 ± 10.7 mmHg and the eGFR was 107.7 ± 12.5 ml min^–1 1.73 m^–2.

The values are drawn from article PMC5903241 (British Journal of Clinical Pharmacology, 2018).
